Reference: PMC5823845 (Bioorganic & Medicinal Chemistry, 2018)
Entries after “also recorded” stand apart in the source; their conditions may differ.

Legend:
COS-7 cells = test: Cytotoxicity assay (MTT) in COS-7 cells; format: cell-based; details: 50-fold multiple of EC50
Experimental: Cytotoxicity Assay: COS-7 cells were plated out on 96 well plates at a density of 8000 cells per well. […] After two days an MTT assay (Promega) was carried out according to the manufacturer’s instructions

in vivo [1] = details: C57, mouse, iv, 1 mg/kg
Experimental: (§3) Blood was centrifuged to yield plasma for quantification of parent compound using UPLC-MS/MS. […] Terminal blood samples (approximately 300 μL) were subsequently taken by cardiac puncture under CO2 terminal anaesthesia. Once collected, blood samples were transferred to tubes containing 28 μL of citrate as anti-coagulant and held on ice, for <30 minutes, before centrifugation to generate plasma. Plasma samples aliquots (50 μL) were treated with four volumes of acetonitrile, containing diclofenac as analytical internal standard. Precipitated proteins were removed by centrifugation and the supernatant was analysed by UPLC-MS/MS. Pharmacokinetic parameters were determined by non-compartmental analysis using the software package PK Solutions 2.0 from Summit Research Services.

[2] = Stability and intrinsic clearance in cryopreserved hepatocytes; details: mouse
Experimental: Reactions were terminated by addition of 100 μL of acetonitrile containing carbamazepine as the analytical internal standard. Samples were centrifuged and the supernatant fractions analysed by LC-MS/MS. The instrument responses (peak heights) were referenced to the zero time-point samples (as 100%) in order to determine the percentage of compound remaining. Ln plots of the % remaining, for each compound, were used to determine the half-life for the hepatocyte incubations.

human RXR α = target: T1, human RXR α (Homo sapiens, UniProt P19793); test: Retinoid X Receptor radioligand binding assay, [3H] 9-cis-retinoic acid; details: human recombinant receptor
T1 construct: Panlabs Eurofins Pharma Discovery Services (CRO)
T1 sequence (P19793 1-462): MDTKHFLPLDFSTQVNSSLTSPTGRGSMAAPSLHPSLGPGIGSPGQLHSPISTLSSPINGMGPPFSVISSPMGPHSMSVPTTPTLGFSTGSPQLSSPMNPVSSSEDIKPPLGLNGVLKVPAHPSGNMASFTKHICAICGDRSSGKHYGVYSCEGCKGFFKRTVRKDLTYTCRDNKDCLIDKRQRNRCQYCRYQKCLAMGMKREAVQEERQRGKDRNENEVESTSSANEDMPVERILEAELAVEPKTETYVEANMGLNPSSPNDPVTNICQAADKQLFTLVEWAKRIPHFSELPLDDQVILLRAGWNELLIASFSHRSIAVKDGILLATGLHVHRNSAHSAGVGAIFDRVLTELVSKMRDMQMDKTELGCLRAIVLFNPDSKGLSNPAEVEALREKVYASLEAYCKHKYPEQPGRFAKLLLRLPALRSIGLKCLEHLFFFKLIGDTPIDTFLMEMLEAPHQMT
Experimental: (§1) [22] The Retinoid X Receptor RXRα and RXRβ radioligand binding assays using [^3H] 9-cis-retinoic acid and the respective human recombinant receptors, were carried out by the CRO Panlabs Eurofins Pharma Discovery Services UK Limited, Gemini Crescent, Dundee Technology Park, Dundee, DD2 1SW.

human RXR β = target: T2, human RXR β (Homo sapiens, UniProt P28702); test: as above; details: human recombinant receptor
T2 construct: Panlabs Eurofins Pharma Discovery Services (CRO)
T2 sequence (P28702 1-533): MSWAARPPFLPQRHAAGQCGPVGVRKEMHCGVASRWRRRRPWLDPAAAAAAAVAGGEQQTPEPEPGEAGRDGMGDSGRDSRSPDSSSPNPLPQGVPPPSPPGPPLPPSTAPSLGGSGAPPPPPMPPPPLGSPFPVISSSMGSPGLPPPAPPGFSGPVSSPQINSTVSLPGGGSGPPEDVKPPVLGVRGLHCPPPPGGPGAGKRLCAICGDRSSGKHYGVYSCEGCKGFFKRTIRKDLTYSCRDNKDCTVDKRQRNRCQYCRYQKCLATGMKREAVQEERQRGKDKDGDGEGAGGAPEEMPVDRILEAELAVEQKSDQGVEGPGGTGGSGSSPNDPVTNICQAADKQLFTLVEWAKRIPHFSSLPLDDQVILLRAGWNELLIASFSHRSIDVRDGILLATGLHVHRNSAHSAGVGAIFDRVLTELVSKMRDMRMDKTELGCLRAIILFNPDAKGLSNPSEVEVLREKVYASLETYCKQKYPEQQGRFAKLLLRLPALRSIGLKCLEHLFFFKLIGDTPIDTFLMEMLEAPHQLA
Experimental: as §1

hERG channel = target: T3, hERG channel (Homo sapiens, UniProt Q12809); test: hERG binding assay, displacement of [3H]-astemizole; details: up to 10 μM
T3 construct: host or cells: HEK293 cells expressing HERG (per the cited method)
Experimental: Interaction with the hERG channel was assessed by displacement of the radioligand [^3H]-astemizole as described by Chiu et al.^3

[3] = Plasma protein binding, equilibrium dialysis; format: in vitro ADME
Experimental: Equilibrium dialysis is used to determine the extent of binding of a compound to plasma proteins. A semi-permeable membrane separates a protein-containing compartment from a protein-free compartment. The system is allowed to equilibrate at 37 °C. The test compound present in each compartment is quantified by LC-MS/MS. The extent of binding is reported as a fraction unbound (fu) value which is calculated as detailed below;
fu = 1 – (PC - PF /PC). PC = Test compound concentration in protein-containing compartment. PF = Test compound concentration in the protein-free compartment.

[4] = Log D pH 7.4, octanol/buffer shake flask method
Experimental: Briefly, octanol (pre-saturated with buffer) is added to the test compound and sonicated. Buffer at pH 7.4 (presaturated with octanol) is then added to the octanol. […] The system is mixed to allow distribution of the compound between the two phases.
Log D = Log (Coct / Caq ). Where: Coct = Concentration in octanol sample (corrected for dilution) and Caq = Concentration in aqueous sample (corrected for dilution)

CHO-K1 cells = test: In vitro micronucleus test; format: cell-based; details: presence and absence of S9
Excerpt: Fluorescent imaging was used to obtain the results in the micronucleus test.

Cyp 450 2D6 = target: T4, Cyp 450 2D6 (Homo sapiens, UniProt P10635); test: Cytochrome P450 inhibition in human liver microsomes; format: in vitro ADME; details: human liver microsomes
T4 construct: tissue Cyprotex (CRO); host or cells: human liver microsomes
Experimental: (§2) The five main cytochrome P450 isoforms (CYP1A, CYP2C9, CYP2C19, CYP2D6 and CYP3A4) were investigated in the P450 inhibition assay. […] At the end of the incubation, the formation of the metabolite was monitored by LC-MS/MS (or fluorescence in the case of CYP1A) at each of the test compound concentrations.

Cyp 450 3A4 = target: T5, Cyp 450 3A4 (Homo sapiens, UniProt P08684); test: as above; format: in vitro ADME; details: human liver microsomes
T5 construct: tissue Cyprotex (CRO); host or cells: human liver microsomes
Experimental: as §2

Cyp 450 2C9 = target: T6, Cyp 450 2C9 (Homo sapiens, UniProt P11712); test: as above; format: in vitro ADME; details: human liver microsomes
T6 construct: tissue Cyprotex (CRO); host or cells: human liver microsomes
Experimental: as §2

[5] = C57 mice, n = 3
Experimental: as §3

in vivo [6] = details: male, Beagle, dog, iv, 0.5 mg/kg
Experimental: intravenous (bolus) injection at a dose level of 0.2 mg/kg. […] Intravenous doses were administered by bolus injection into a cephalic vein at a dose volume of 1 mL/kg. Oral doses were administered by gastric intubation at a dose volume of 5 mL/kg. […] Pharmacokinetic parameters were calculated using the computer program Phoenix WinNonlin version 6.3 (Pharsight Corporation, USA).

Solubility in water = format: physicochemical; details: as the sodium salt in water at 35 °C

T3 sequence (Q12809 whole entry): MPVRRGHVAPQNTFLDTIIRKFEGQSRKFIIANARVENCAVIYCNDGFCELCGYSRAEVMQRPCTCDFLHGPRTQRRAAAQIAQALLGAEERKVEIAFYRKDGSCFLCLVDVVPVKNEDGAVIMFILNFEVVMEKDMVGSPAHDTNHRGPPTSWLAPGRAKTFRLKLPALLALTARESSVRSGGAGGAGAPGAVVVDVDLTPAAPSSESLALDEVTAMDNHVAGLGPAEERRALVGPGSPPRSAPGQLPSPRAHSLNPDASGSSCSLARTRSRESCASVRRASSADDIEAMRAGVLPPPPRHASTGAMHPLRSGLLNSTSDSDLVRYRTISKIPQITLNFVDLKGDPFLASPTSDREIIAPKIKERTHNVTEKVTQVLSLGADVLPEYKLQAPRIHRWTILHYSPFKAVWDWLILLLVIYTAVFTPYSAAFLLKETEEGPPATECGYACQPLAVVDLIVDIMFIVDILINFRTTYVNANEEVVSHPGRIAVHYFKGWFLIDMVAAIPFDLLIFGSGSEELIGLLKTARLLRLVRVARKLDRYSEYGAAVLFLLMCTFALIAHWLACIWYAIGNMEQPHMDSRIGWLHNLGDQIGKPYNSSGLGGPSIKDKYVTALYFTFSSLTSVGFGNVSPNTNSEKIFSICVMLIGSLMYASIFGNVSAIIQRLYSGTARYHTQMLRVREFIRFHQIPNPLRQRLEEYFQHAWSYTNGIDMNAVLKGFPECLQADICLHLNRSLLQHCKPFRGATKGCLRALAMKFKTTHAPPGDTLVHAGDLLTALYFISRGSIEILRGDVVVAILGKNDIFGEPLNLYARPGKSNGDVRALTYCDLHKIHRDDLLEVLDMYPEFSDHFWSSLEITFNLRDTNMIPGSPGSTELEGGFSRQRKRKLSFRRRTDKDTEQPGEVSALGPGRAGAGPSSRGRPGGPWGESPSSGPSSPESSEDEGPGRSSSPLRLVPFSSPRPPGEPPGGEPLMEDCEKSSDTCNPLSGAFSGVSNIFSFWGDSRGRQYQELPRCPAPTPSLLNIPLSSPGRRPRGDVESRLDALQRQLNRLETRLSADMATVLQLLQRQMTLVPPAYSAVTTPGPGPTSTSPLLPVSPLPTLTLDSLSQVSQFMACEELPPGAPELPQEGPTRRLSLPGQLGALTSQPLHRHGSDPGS
T4 sequence (P10635 whole entry): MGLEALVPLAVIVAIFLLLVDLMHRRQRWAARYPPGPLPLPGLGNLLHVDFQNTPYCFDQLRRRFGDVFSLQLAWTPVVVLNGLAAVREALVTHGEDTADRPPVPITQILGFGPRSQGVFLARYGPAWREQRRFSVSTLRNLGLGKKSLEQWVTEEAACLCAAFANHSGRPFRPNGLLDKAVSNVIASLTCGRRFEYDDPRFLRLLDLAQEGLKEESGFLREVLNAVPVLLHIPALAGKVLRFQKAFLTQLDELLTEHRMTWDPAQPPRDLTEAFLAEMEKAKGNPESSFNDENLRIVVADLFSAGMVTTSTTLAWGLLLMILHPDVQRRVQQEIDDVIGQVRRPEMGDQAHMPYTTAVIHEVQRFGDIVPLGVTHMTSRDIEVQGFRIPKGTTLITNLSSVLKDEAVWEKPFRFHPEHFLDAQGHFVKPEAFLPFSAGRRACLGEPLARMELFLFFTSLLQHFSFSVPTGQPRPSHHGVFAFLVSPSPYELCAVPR
T6 sequence (P11712 whole entry): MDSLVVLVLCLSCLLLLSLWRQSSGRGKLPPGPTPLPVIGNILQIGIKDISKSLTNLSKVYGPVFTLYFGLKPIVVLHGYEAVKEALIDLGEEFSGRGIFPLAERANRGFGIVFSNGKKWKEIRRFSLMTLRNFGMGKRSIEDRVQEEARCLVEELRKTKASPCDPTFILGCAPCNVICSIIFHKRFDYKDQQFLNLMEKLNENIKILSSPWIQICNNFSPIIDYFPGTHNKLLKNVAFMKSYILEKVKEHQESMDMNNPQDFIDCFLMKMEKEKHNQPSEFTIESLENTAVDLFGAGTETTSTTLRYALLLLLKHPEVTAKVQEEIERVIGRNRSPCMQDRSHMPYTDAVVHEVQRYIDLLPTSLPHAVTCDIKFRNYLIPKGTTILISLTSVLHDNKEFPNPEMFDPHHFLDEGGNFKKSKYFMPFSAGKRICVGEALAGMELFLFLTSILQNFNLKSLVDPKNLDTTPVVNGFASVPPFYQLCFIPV
T5 sequence (P08684 whole entry): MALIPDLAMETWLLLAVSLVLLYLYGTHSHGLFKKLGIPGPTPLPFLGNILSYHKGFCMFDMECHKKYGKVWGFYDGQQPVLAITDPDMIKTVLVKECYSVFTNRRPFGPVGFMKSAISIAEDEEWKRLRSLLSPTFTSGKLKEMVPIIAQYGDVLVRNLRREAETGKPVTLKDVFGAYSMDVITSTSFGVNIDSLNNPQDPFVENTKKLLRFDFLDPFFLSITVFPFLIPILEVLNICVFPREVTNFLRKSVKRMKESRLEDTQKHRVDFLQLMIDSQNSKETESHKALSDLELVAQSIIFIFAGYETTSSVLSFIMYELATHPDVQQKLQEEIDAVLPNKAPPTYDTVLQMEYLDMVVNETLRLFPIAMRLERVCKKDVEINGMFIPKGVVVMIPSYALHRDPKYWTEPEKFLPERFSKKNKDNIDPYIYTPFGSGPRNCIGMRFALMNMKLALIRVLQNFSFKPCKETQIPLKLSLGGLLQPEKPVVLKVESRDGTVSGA

## CCOc1c(Cl)cc(C(=O)Nc2ccc(C(=O)O)c(C)c2)cc1OC(C)C [Compound 56, 4-(3-Chloro-4-ethoxy-5-isopropoxybenzamido)-2-methylbenzoic acid]
COS-7 cells
  cytotoxicity in COS-7 cells: no cytotoxicity; also recorded: not cytotoxic
In vivo [1]
  Vd: 0.3 L/kg
  clearance: 4.7 mL/min/kg
[2]
  half-life at 1 μM: 3.73 h
  half-life at 30 μM: > 5 h
  hepatocyte CLint at 1 μM: 12 µL/min/1e6 cells
  hepatocyte CLint at 30 μM: < 9 µL/min/1e6 cells
Human RXR α
  IC50: > 10 µM
Human RXR β
  IC50: > 10 µM
hERG channel
  binding to hERG: did not show any significant binding; also recorded: no inhibition
[3]; human
  fraction unbound: 0.07
[3]; mouse
  fraction unbound: 0.09
[4]
  logD: 1.8
CHO-K1 cells
  in vitro micronucleus test: negative
Cyp 450 2D6
  IC50: > 25 µM
Cyp 450 3A4
  IC50: > 25 µM
Cyp 450 2C9
  IC50: > 25 µM
[5]; 1 mg/kg iv and po, 1 mg/kg
  po F: 84%
[5]; 1 mg/kg iv
  iv t1/2: 1.9 h
[5]; 1 mg/kg po
  po Cmax: 2007 ng/mL
  po Tmax: 0.25 h
In vivo [6]
  Vd: 0.66 L/kg
  clearance: 2.3 mL/min/kg
Solubility in water
  solubility: > 5000 µg/mL
